# Data published in patent publication US20260131107A1, “CATHETERS” (ConvaTec Limited, priority 2023, published 2026).
# Tests used:
# [1] = test system: Enterococcus faecalis NCTC 12201; assay: In vitro direct inoculation method, sulfanilamide comparison (Further Assessment 3); format: cell-based
# Experimental: (§1) An in vitro direct inoculation method was used to assess the antimicrobial activity of sulfanilamide in an intermittent urinary catheter scenario against […] Escherichia coli NCIMB 14067 and […] Enterococcus faecalis NCTC 12201; two microorganisms associated with urinary tract infections. Sulfanilamide concentrations of 0.1% and 0.01% were tested and bacterial levels monitored over a period of 5 minutes. Representative colonies of the challenge microorganisms, from an 18-24 hour challenge culture plate, were dispersed in MRD to obtain an optical density (OD540 nm) equivalent to approximately 1×10^8 CFU/mL. This was diluted to obtain a working concentration of 1×10^6 CFU/mL. A quantitative count was performed to confirm the inoculum level. The challenge organism was prepared in MRD to a concentration of approximately 1×10^6 CFU/mL. This suspension was added in a 1 mL volume to 9 mL of sample (n=3 per sample, n=2 per control) in a sterile 30 mL universal and pipetted up and down to mix. Following each testing period, 5 seconds, 30 seconds, 1 minute, 2 minutes and 5 minutes, 100 μL of the test solution was transferred to 0.9 mL and 9.9 mL volumes of DENB (1:10 and 1:100 dilutions, respectively). The most appropriate dilutions were inoculated (100 pL) onto duplicate pre-dried (tryptone soy agar) TSA plates and the inoculum spread using separate sterile L-shaped spreaders (for 10-1 and 10-2 dilutions, 0.5 mL were placed onto duplicate plates). The TSA plates were allowed to dry before being inverted and incubated at 35±3° C. for at least 48 hours. Following the incubation period, the number of bacterial colonies were counted on the most appropriate dilution for each dressing type i.e. between 25-250 CFU/plate. The samples tested were: 0.1% sulfanilamide in sterile deionised water (SDW); 0.01% sulfanilamide in SDW; 100 ppm hypochlorous acid in SDW; and a SDW control.
# [2] = test system: Escherichia coli NCIMB 14067; assay: as above; format: cell-based
# Experimental: as §1
# [3] = test system: ESBL Producing Klebsiella pneumoniae NCTC 13465; assay: Direct inoculation method (Assessment 6a); format: cell-based; conditions: 250 ppm solution
# Experimental: (§2) Representative colonies from an 18-24 hour challenge culture plate were dispersed in a 500 µl aliquot of maximum recovery diluent (MRD) to obtain an optical density (OD540 nm) equivalent to approximately I×lO^8 CFU/ml. This was diluted to obtain a working concentration of I×lO^7 CFU/ml. A quantitative count was performed to confirm the inoculum level.
# (§3) The bacteria tested were Escherichia coli NCIMB 14067, ESBL Producing Klebsiella pneumoniae NCTC 13465, Enterococcus faecalis NCTC 12201, Proteus mirabilis NCTC 9559 and Pseudomonas aeruginosa NCIMB 8626, which each are commonly associated with causing CAUTI.
# (§4) 5 pl of the I×lO^7 CFU/ml challenge suspension was added to a 500 pl aliquot of hypochlorous acid solution (250 ppm) (n=3 per challenge organism, per timepoint) and mixed to form a suspension.
# (§5) Following 10 seconds, 1 minute and 2 minutes from adding the challenge suspension to the aliquot of hypochlorous acid, samples were taken from the suspension to establish the number of challenge organisms remaining. This was performed by removing 100 pl volumes and transferring to 0.9 ml and 9.9 ml DENB (for 1:10 and 1:100 dilutions respectively). Appropriate serial dilutions were performed and inoculated onto pre-dried Tryptone Soy Agar (TSA) plates to establish the numbers remaining.
# [4] = test system: Enterococcus faecalis NCTC 12201; assay: Direct inoculation method (Assessment 6a); format: cell-based; conditions: 250 ppm solution
# Experimental: as §2, §3, §4, §5
# [5] = test system: Escherichia coli NCIMB 14067; assay: Direct inoculation method (Assessment 6a); format: cell-based; conditions: 250 ppm solution
# Experimental: as §2, §3, §4, §5
# [6] = test system: Proteus mirabilis NCTC 9559; assay: Direct inoculation method (Assessment 6a); format: cell-based; conditions: 250 ppm solution
# Experimental: as §2, §3, §4, §5
# [7] = test system: Pseudomonas aeruginosa NCIMB 8626; assay: Direct inoculation method (Assessment 6a); format: cell-based; conditions: 250 ppm solution
# Experimental: as §2, §3, §4, §5
# [8] = test system: Escherichia coli NCIMB 14067; assay: Antimicrobial activity along the catheter method (Assessment 6b); format: cell-based; conditions: concentration 300 ppm or above; each section of GentleCath Air 2.0 CH14 catheter; two minutes
# Experimental: as §2, with “in” for “in a 500 µl aliquot of”, “I×lO^4” for “I×lO^7”
# The bacteria tested were Escherichia coli NCIMB 14067 which are bacteria that are commonly associated with causing CAUTI.
# GentleCath Air 2.0 CH14 (manufactured by ConvaTec Inc.) intermittent urinary catheters were used for the assessment. Each catheter was prepared within a laminar flow cabinet to maintain sterility. In the assessment, each catheter was hydrated with a 100, 150, 200, 300, 675 or 1000 ppm hypochlorous acid solution. A further catheter was hydrated with sterile deionised water (SDW) and was used as a control.
# Enough samples were prepared for n=3 and controls for n=1 per challenge organism.
# Each catheter was hydrated with a hypochlorous solution as described above, as per the IFU, and removed from its packaging.
# Each catheter was cut into three sections, each section having a length of 2.5 cm, beginning at the tip of the catheter (section 1) and ending proximal to the handle of the catheter (section 3). […]
# [9] = test system: E. coli NCIMB 14067; assay: Antimicrobial residual test (Assessment 6c); format: cell-based, Escherichia coli; conditions: for Antimicrobial residual test result (growth of challenge organism): 40 µl on sterile filter
# Experimental: (§6) Representative colonies from an 18-24 hour challenge culture plate were dispersed in maximum recovery diluent (MRD) to obtain an optical density (OD540 nm) equivalent to approximately I×lO^8 CFU/ml. This was diluted to obtain a working concentration of I×lO^6 CFU/ml. A quantitative count was performed to confirm the inoculum level. The bacteria tested were Escherichia coli NCIMB 14067, Enterococcus faecalis NCTC 12201, which each are commonly associated with causing CAUTI. 40 pl of a hypochlorous acid solution (250 ppm), representative of the amount of hypochlorous acid that is left on a catheter following hydration, was placed onto sterile filters. A 40 pl volume of maximum recovery diluent (MRD) was placed onto a further sterile filter as a negative control. A 40 pl volume of approximate 2% […] was placed onto a further sterile filter as a positive control. The filters used were Grade 427 mm Whatman Filters. Following timepoints of 0 minutes, 30 minutes and 4 hours from adding the hypochlorous acid solutions and control to respective sterile filters, each sterile filter was then inoculated with lOpl of IxlO^6 CFU/ml challenge suspension of bacteria, prepared as described above, and left undisturbed for two minutes (to represent approximate urination time). Following the two minutes, the filters were homogenised in Dey-Engley Neutralising Broth (DENB) and appropriate serial dilutions were performed and inoculated onto pre-dried Tryptone Soy Agar (TSA) plates to establish the bacteria numbers remaining.
# [10] = test system: E. faecalis NCTC 12201; assay: Antimicrobial residual test (Assessment 6c); format: cell-based, Enterococcus faecalis; conditions: for Antimicrobial residual test result (growth of challenge organism): 40 µl on sterile filter
# Experimental: as §6
# [11] = test system: E. coli NCIMB 14067; assay: Antimicrobial efficacy of very low hypochlorous acid concentrations, suspension test (Further Assessment 2); format: cell-based, Escherichia coli; conditions: for bacterial recovery: 10 ppm solution; for numbers of bacteria recovered: after 30 seconds
# Experimental: The antimicrobial efficacy of hypochlorous acid was tested at even lower concentrations (10, 25, and 50 ppm) against the challenging organism E. coli NCIMB 14067. The representative colonies of E. coli NCIMB 14067 were dispersed in maximum recovery diluent (MRD) to obtain an optical density (OD540 nm) equivalent to approximately […]. A quantitative plate count was performed on this suspension to determine the total number of viable organisms inoculated. A new suspension was prepared for each concentration tested. A 1000 ppm hypochlorous acid solution was diluted in sterile deionised water to provide the respective 10, 25 and 50 ppm hypochlorous acid solutions. The hypochlorous acid samples were aliquoted into 9 mL volumes and 1 mL of the challenge organism suspension was added and mixed (the final number of bacteria present is now approximately 1×10^6 CFU/mL). Following 5, 30 seconds, 1, 2, and 5 minutes, 100 pL volumes were sampled and transferred to 0.9 mL and 9.9 mL of Dey-Engley Neutralising Broth (DENB) (to provide a 1:10 and 1:100 dilution respectively), and total viable counts were performed to establish the amount present. The plates were left to dry before being inverted and incubated at 35+3° C. for at least 48 hours. A negative control was also tested whereby 1 mL of the challenge organism suspension was added to 9 mL of MRD and tested as previously described. Following the incubation period, the number of CFUs were counted on the most appropriate dilution for each sample i.e. between 25-250 CFU/plate.
# [12] = 0.1% and 0.01% in SDW, any timepoint from 5 seconds to 5 minutes
# [13] = inoculated at 0 hour (plus 2 minutes)
# [14] = inoculated at 30 minutes (plus 2 minutes)
# [15] = inoculated at 4 hours (plus 2 minutes)
# [16] = 250 ppm solution on sterile filter
# [17] = 100 ppm in SDW, within 5 seconds and for the remaining testing period (to 5 minutes)
compound,measurement,setting,value
"Nc1ccc(S(N)(=O)=O)cc1 [sulfanilamide, reference compound]",challenge organism numbers compared to the control,[1]; [12],no decrease in challenge organism numbers
same,challenge organism numbers compared to the control,[2]; [12],no decrease in challenge organism numbers
OCl [hypochlorous acid],Bacterial numbers reduced to the detection limit (>5 log reduction),[3]; 10 seconds,Yes
same,Bacterial numbers reduced to the detection limit (>5 log reduction),[3]; 1 minute,Yes
same,Bacterial numbers reduced to the detection limit (>5 log reduction),[3]; 2 minutes,Yes
same,Bacterial numbers reduced to the detection limit (>5 log reduction),[4]; 10 seconds,Yes
same,Bacterial numbers reduced to the detection limit (>5 log reduction),[4]; 1 minute,Yes
same,Bacterial numbers reduced to the detection limit (>5 log reduction),[4]; 2 minutes,Yes
same,Bacterial numbers reduced to the detection limit (>5 log reduction),[5]; 10 seconds,Yes
same,Bacterial numbers reduced to the detection limit (>5 log reduction),[5]; 1 minute,Yes
same,Bacterial numbers reduced to the detection limit (>5 log reduction),[5]; 2 minutes,Yes
same,Bacterial numbers reduced to the detection limit (>5 log reduction),[6]; 10 seconds,Yes
same,Bacterial numbers reduced to the detection limit (>5 log reduction),[6]; 1 minute,Yes
same,Bacterial numbers reduced to the detection limit (>5 log reduction),[6]; 2 minutes,Yes
same,Bacterial numbers reduced to the detection limit (>5 log reduction),[7]; 10 seconds,Yes
same,Bacterial numbers reduced to the detection limit (>5 log reduction),[7]; 1 minute,Yes
same,Bacterial numbers reduced to the detection limit (>5 log reduction),[7]; 2 minutes,Yes
same,bacterial cell death,[8],greater than 93%
same,Antimicrobial residual test result (growth of challenge organism),[9]; [13],No growth
same,Antimicrobial residual test result (growth of challenge organism),[9]; [14],Growth
same,Antimicrobial residual test result (growth of challenge organism),[9]; [15],Growth
same,time by which antimicrobial activity was exhausted,[9]; [16],≤ 30 min
same,Antimicrobial residual test result (growth of challenge organism),[10]; [13],No growth
same,Antimicrobial residual test result (growth of challenge organism),[10]; [14],Growth
same,Antimicrobial residual test result (growth of challenge organism),[10]; [15],Growth
same,time by which antimicrobial activity was exhausted,[10]; [16],≤ 30 min
same,bacterial recovery,[11]; 1 minute timepoint,undetectable levels
same,bacterial recovery,[11]; at 30 seconds,over 10 CFU/mL
same,numbers of bacteria recovered,[11]; 25 ppm solution,undetectable numbers of bacteria
same,numbers of bacteria recovered,[11]; 50 ppm solution,undetectable numbers of bacteria
same,challenge organism numbers,[1]; [17],undetectable numbers
same,challenge organism numbers,[2]; [17],undetectable numbers
